Experimental data reported in patent US11472812B2, “Anti-cancer compounds targeting Ral GTPases and methods of using the same” (The Regents of the University of Colorado, a body corporate, priority 2014, dated 2022).
Substitutions are numbered along the chain they refer to. Values after ≈ are worked out from the molar mass of the structure shown.

Legend:
[1] = Pharmacokinetics after single intraperitoneal injection; type: in vivo; details: 50.0 mg/kg i.p., n = 3, nude mice
Protocol: Inhibition of Ral activity and tumor growth were evaluated in human lung cancer mouse models. Pharmacokinetics (PK) of RBC8 and BQU57 were first analyzed in nude mice to test bioavailability. Following a single intraperitoneal injection (50 mg/Kg), blood samples were collected at time intervals from 0 to 5 h post-dose (9 time points).

RalB = molecular target: T1, RalB (Homo sapiens, UniProt P11234); experiment: RalBP1 pull-down of Ral activity in H2122 xenograft tumors; type: in vivo; details: single i.p. dose, RBC8 50 mg/kg or BQU57 10/20/50 mg/kg, tumors collected 3 h post-dose
T1 sequence (P11234 1-206): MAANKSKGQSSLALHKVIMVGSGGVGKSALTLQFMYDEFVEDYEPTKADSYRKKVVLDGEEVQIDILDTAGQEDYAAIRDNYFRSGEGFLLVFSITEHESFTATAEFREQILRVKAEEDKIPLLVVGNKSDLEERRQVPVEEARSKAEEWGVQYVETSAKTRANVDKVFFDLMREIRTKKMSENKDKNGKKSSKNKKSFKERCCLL
Protocol: (§1) Finally, we evaluated Ral GTPase activity in vivo in the H2122 xenografts. Nude mice were inoculated with 5×10^6 cells H2122 cells s.c. at four sites per mice. Tumor size reached an average of 250 mm^3 in ten days, at which time mice were given a signal i.p. dose of RBC8 or BQU57 at various concentrations. Tumors were then collected 3 h after injection of RBC8 or BQU57. RalA and RalB activity in tumor samples were then measured using the RalBP1 pull-down assay kit (Millipore #14-415). Ras and RhoA activity in tumor samples were measured using the respective pull-down assay kits. All the activity assays used western blotting as the final readout. For quantification of the immunoblots, the bands on each blot were first normalized to their respective internal control (10 ng of recombinant Ral, Ras, or […] protein run in the last lane) the numbers were then compared across different blots, each of which represented one treatment condition. Mice bearing H2122 tumors (median size 250 mm^3) were given a single intraperitoneal dose of RBC8 (50 mg/kg) or BQU57 (10/20/50 mg/kg) and tumors collected 3 h post-dose.

RalA = molecular target: T2, RalA (Homo sapiens, UniProt P11233); experiment: as above; type: in vivo; details: single i.p. dose, RBC8 50 mg/kg or BQU57 10/20/50 mg/kg, tumors collected 3 h post-dose
T2 sequence (P11233 1-206): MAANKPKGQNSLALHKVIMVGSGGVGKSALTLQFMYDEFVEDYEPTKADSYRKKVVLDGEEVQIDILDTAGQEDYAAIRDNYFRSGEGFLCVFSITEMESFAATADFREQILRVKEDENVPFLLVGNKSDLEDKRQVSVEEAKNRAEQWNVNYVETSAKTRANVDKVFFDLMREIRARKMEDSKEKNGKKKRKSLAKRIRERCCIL
Protocol: as §1

RalB-GNP = molecular target: T3, RalB-GNP (Homo sapiens, UniProt P11234, Q72L); experiment: TROSY 15N-HSQC NMR chemical shift perturbation; type: binding; details: 100 μM RalB-GNP, 100 μM compound
T3 construct: made in house
T3 sequence (P11234 1-206 Q72L): T1 sequence (P11234 1-206) with Q72L
Text: (§2) To confirm the direct binding of the compounds to the target, we used TROSY ^15N-HSQC (Transverse Relaxation-Optimized Heteronuclear Single Quantum Coherence) NMR. RalB (Q72L mutant) in a pET16b (Novagen) plasmid was a kind gift from Dr. Darerca Owen (Cambridge University). RalB was purified with additional steps for loading with GDP or the non-hydrolyzable form of GTP, GMPNPP (GNP, Sigma-Aldrich). Uniform ^13C^15N-double labeled protein was produced in M9 media supplemented with ^15N-NH4Cl and ^13C-glucose. Samples were prepared for NMR in 50 mM sodium phosphate, pH 7.6, 100 mM NaCl and 1 mM MgCl2. All NMR experiments were recorded on an Agilent 900 MHz system at 25° C. Resonance assignments for the RalB-GNP complex were obtained from previously published studies deposited in Biological Magnetic Resonance Bank (BMRB, code: 15230). Chemical shift assignments of the RalB-GDP complex were obtained independently using HNCACB, CBCA(CO)NH and COCNH-TOCSY experiments. All NMR data was processed using NMRPipe and analyzed using CCPNMR analysis program. Assignment were obtained by automated assignment using PINE followed by manual verification. ^15N-HSQC experiments were used to monitor amide shifts from the RalB protein (100 μM) following the addition of compound reconstituted in deuterated DMSO. DMSO concentrations in the final sample were 0.5% or 1%; control samples were made with 0.5% or 1% deuterated DMSO and all samples containing compounds were compared to their corresponding […] control.
(§3) Because only the NMR structure of RalB in complex with GNP has been solved (PDB code 2KE5, BMRB entry 15230), we focused on this isoform. The ^15N-HSQC NMR spectrum of RalB-GDP and RalB-GNP were first determined and the chemical shift differences were analyzed. NMR spectra were then recorded in the presence of RBC8 or DMSO control. Binding of small molecules to the protein was monitored by the perturbation of ^15N-HSQC protein amide peaks.
(§4) A detailed NMR titration of the binding between BQU57 and RalB-GDP was carried out. […] In the absence of a crystal structure of RalB-GDP, a homology model was generated based on the sequence similarity to RalA-GDP and the residues that experienced chemical shift changes in the presence of drug was mapped onto this model (FIG. 3E).

RalB-GDP = molecular target: T4, RalB-GDP (Homo sapiens, UniProt P11234, Q72L); experiment: TROSY 15N-HSQC NMR chemical shift perturbation; type: binding; details: 100 μM RalB-GDP, 100 μM compound
T4 construct: made in house
T4 sequence (P11234 1-206 Q72L): T1 sequence (P11234 1-206) with Q72L
Text: as §2, §3, §4

physchem = type: physicochemical; details: aqueous buffer
RhoA = molecular target: T5, RhoA (Homo sapiens, UniProt P61586); experiment: RhoA activity pull-down in H2122 xenograft tumors; type: in vivo; details: BQU57 treated H2122 tumors, 3 h post-dose
T5 construct: from tissue; host or cells: H2122 xenograft tumours from nude mice
Text: Activity assay kits for Ras (#BK008) and RhoA (#BK036) were obtained from Cytoskeleton (Denver, Colo.). We used an ELISA for Ral activity based on selective binding of active RalA-GTP to its effector protein RalBP1.
as §1

T5 sequence (P61586 whole entry): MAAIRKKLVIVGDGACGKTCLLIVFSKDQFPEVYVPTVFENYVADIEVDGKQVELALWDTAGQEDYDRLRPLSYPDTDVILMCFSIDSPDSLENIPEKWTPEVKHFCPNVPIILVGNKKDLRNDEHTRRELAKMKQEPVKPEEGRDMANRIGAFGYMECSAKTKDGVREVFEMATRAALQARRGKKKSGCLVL

| Compound | Co [1] | half-life ([1]; mouse, blood, ip) | AUC(0-t) ([1]; mouse, blood, ip, read-out: AUC0-5 hr) | inhibition of RalB activity in tumors (RalB) | inhibition of RalA activity in tumors (RalA) | binding to RalB-GNP by 15N-HSQC chemical shift changes (RalB-GNP) | binding to RalB-GDP by 15N-HSQC chemical shift changes (RalB-GDP) | solubility (physchem) | inhibition of RhoA activity in tumors (RhoA) | T1/2 [1] |
| --- | --- | --- | --- | --- | --- | --- | --- | --- | --- | --- |
| Cc1nn(C)c2c1C(c1ccc(C(F)(F)F)cc1)C(C#N)=C(N)O2 (stereo not drawn) [BQU57, 6-amino-1,3-dimethyl-4-(4-(trifluoromethyl)phenyl)-1,4-dihydropyrano[2,3-c]pyrazole-5-carbonitrile] | 41.6 ± 5.1 µM | 1.5 ± 0.11 h | 28600 ± 2100 ng·h/mL | significant inhibition | significant inhibition | did not bind | binding to the predicted site | ~75 µM (≈ 25.1 µg/mL) | no significant inhibition | – |
| COc1ccc(OC)c(C2C(C#N)=C(N)Oc3n[nH]c(-c4ccc5ccccc5c4)c32)c1 (stereo not drawn) [RBC8] | 41.2 ± 4.2 µM | – | – | significant inhibition | significant inhibition | did not bind | showed changes in peak position of representative residues located in the allosteric site | – | – | 0.58 ± 0.26 h |
